Measured values as given in patent US9086425B2, “Carbamylated proteins and risk of cardiovascular disease” (The Cleveland Clinic Foundation, priority 2007, dated 2015).

Legend:
scavenger receptor SR-A1 = biological target: T1, scavenger receptor SR-A1 (Mus musculus, UniProt P30204); experiment: Carbamylated LDL binding studies with SR-A1 transfected cells / SR-A1 inhibitor; assay type: cell-based, murine; settings: data not shown
T1 construct: expressed in transfected cells; host or cells: CHO cells, stably transfected
T1 sequence (P30204 1-458): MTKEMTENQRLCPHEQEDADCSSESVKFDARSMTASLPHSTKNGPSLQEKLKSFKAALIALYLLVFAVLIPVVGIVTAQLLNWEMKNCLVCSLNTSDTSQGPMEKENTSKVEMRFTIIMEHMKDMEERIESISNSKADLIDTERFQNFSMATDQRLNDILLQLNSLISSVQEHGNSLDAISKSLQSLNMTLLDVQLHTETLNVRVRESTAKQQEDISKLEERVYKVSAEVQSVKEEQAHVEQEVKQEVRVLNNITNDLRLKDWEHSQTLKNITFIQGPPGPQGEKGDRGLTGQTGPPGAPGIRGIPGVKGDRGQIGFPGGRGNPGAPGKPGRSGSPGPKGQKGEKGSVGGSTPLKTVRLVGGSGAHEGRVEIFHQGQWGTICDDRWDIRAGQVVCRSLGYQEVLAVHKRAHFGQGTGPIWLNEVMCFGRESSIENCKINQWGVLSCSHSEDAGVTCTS

[1] = test system: aortic smooth muscle cells (both human and bovine); experiment: Aortic smooth muscle cell proliferation; assay type: cell-based; settings: SR-A1 inhibitor present in culture media
From the text: 1,1′-dioctadecyl-3,3,3′,3′-tetramethylyindocarbocyanine perchlorate (DiI) was obtained from Molecular Probes (Eugene, Oreg.). Organic solvents were obtained from Fisher Scientific Co. (Pittsburgh, Pa.). Caspase-3/7 assay kit (Lot #220150) was purchased from Promega (Madison, Wis.) and cell proliferation ELISA, BrdU (colorimetric) kit (Lot #11647229001) was from Roche (Indianapolis, Ind.). All other reagents and materials were obtained from Sigma Chemical Co. (St. Louis, Mo.) unless otherwise indicated. Protein content was determined by the Markwell-modified Lowry protein assay^44. Human LDL and HDL were isolated from whole blood of healthy volunteers by established methods^45. Human myeloperoxidase (MPO) (donor: hydrogen peroxide, oxidoreductase, EC 1.11.1.7), NO2-LDL and AcLDL were prepared as described in Podrez et al^14.
In a separate series of studies, we therefore examined the impact of MPO-catalyzed lipoprotein carbamylation on these processes.

homocitrulline levels = experiment: Effect of simvastatin on plasma levels of homocitrulline (randomized placebo-controlled study); assay type: in vivo, human; settings: 6 weeks of treatment
Experimental: This study was intended to evaluate the effect of statin therapy on homocitrulline levels. Specimens came from archival materials from a randomized, double-blind, parallel-group, 4-arm, placebo-controlled, multi-center study conducted in 1997. Prior to randomization, subjects underwent a 4-week diet/placebo run-in period. Eligible patients were then randomized to 1 of 4 treatments (ratio 1:1:1:1): placebo, simvastatin 20, 40, or 80 mg, and received 6 weeks of treatment. One hundred and eighty eight out of 195 enrolled men and women completed the study. Subjects were required to have elevated TG (300 to 900 mg/dL), and many had comorbidities associated with the metabolic syndrome; however, though those with morbid obesity, uncontrolled hypertension, or severe hyperlipidemia were excluded. Archived serum and/or plasma that were drawn predose on Day 1 and on Day 42 were used in this analysis.

Row | Compound | inhibition of specific binding of carbamylated LDL (scavenger receptor SR-A1) | effect on proliferation induced by carbamylated LDL [1] | Median % Change (SD) of homocitrulline (homocitrulline levels; simvastatin 20 mg, Day 42 vs predose Day 1, archived serum and/or plasma) | Median % Change (SD) of homocitrulline (homocitrulline levels; simvastatin 40 mg, Day 42 vs predose Day 1, archived serum and/or plasma) | Median % Change (SD) of homocitrulline (homocitrulline levels; simvastatin 80 mg, Day 42 vs predose Day 1, archived serum and/or plasma) | Median % Change (SD) of homocitrulline (homocitrulline levels; simvastatin combined (20, 40, 80 mg), Day 42 vs predose Day 1)
1 | fucoidin | over 80% | markedly suppressed |  |  |  | 
2 | CCC(C)(C)C(=O)O[C@H]1C[C@@H](C)C=C2C=C[C@H](C)[C@H](CC[C@@H]3C[C@@H](O)CC(=O)O3)[C@H]21 [Simvastatin, simvastatin] |  |  | −100.0 (102.67) % | −100.0 (67.77) % | −63.44 (89.63) % | −100.0 (84.03) %
